Results on 6 molecules are retold here after patent US11866720B2, “Transgenic or non-transgenic plants with mutated protoporphyrinogen oxidase having increased tolerance to herbicides” (priority 2013, dated 2024).

Experiment in all cases: biochemical
Assay [1] deals with T1, recombinant wildtype and mutated PPO (Amaranthus PPO2: PPX2L_WC SEQ ID NO 2, PPX2L_AC SEQ ID NO 4, dG210 SEQ ID NO 6 & 8) (Amaranthus tuberculatus, UniProt Q0NZW9, R128A/F420M, form not given).
T1 sequence (Q0NZW9 1-534 R128A/F420M): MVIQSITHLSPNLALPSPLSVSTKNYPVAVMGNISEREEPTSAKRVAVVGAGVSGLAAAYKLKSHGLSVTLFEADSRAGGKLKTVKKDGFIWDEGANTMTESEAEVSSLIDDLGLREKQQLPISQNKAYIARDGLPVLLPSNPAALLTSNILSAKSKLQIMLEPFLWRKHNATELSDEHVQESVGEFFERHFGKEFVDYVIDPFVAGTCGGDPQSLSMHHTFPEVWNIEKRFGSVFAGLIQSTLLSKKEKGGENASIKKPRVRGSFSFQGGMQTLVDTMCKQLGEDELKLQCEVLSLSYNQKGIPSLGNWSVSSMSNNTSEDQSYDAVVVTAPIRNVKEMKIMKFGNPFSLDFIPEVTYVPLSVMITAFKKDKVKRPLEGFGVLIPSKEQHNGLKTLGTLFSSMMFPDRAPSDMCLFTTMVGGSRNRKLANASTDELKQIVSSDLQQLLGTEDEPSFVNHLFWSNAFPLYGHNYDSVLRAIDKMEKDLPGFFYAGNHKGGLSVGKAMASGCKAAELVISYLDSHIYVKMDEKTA

Assay [2] addresses T2, recombinant wildtype and mutated PPO (Amaranthus PPO2: PPX2L_WC SEQ ID NO 2, PPX2L_AC SEQ ID NO 4, dG210 SEQ ID NO 6 & 8) (Amaranthus tuberculatus, UniProt Q0NZW9, D133A/F420M/R128F).
T2 sequence (Q0NZW9 1-534 R128F/D133A/F420M): T1 sequence (Q0NZW9 1-534 R128A/F420M) with A128F, D133A
The note with it: IC50 (M).

For assay [3], the target named is recombinant wildtype and mutated PPO (Amaranthus PPO2: PPX2L_WC SEQ ID NO 2, PPX2L_AC SEQ ID NO 4, dG210 SEQ ID NO 6 & 8) (Amaranthus tuberculatus, UniProt Q0NZW9, D133A/F420I/R128H). Particulars: IC50 (M).
The target of assay [4] is T3, recombinant wildtype and mutated PPO (Amaranthus PPO2: PPX2L_WC SEQ ID NO 2, PPX2L_AC SEQ ID NO 4, dG210 SEQ ID NO 6 & 8) (Amaranthus tuberculatus, UniProt Q0NZW9, D133A/F420I/R128I).
T3 sequence (Q0NZW9 1-534 R128I/D133A/F420I): T1 sequence (Q0NZW9 1-534 R128A/F420M) with A128I, D133A, M420I
The note with it: IC50 (M).

Assay [5] has as its target T4, recombinant wildtype and mutated PPO (Amaranthus PPO2: PPX2L_WC SEQ ID NO 2, PPX2L_AC SEQ ID NO 4, dG210 SEQ ID NO 6 & 8) (Amaranthus tuberculatus, UniProt Q0NZW9, R128A/F420L, form not given).
T4 sequence (Q0NZW9 1-534 R128A/F420L): T1 sequence (Q0NZW9 1-534 R128A/F420M) with M420L

Substitutions are numbered along the chain they refer to.

Sequence of recombinant wildtype and mutated PPO (Amaranthus PPO2: PPX2L_WC SEQ ID NO 2, PPX2L_AC SEQ ID NO 4, dG210 SEQ ID NO 6 & 8) (Amaranthus tuberculatus, UniProt Q0NZW9, D133A/F420I/R128H) (Q0NZW9 1-534 R128H/D133A/F420I): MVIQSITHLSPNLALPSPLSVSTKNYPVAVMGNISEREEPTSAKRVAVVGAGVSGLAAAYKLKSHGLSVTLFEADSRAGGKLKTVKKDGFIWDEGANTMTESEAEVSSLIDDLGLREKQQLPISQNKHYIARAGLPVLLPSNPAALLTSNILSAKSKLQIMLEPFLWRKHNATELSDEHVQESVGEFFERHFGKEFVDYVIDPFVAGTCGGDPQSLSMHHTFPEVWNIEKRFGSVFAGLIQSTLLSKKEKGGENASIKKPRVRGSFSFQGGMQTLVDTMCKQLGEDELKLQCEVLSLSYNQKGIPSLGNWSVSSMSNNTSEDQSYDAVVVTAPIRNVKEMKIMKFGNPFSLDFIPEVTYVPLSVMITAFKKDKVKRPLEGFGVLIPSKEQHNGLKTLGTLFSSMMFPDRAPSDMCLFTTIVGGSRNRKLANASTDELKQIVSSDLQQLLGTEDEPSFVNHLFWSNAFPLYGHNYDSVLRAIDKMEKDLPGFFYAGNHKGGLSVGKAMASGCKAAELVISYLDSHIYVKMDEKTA

As for `C#CCN1C(=O)COc2cc(F)c(N3C(=O)C4=C(CCCC4)C3=O)cc21` [Flumioxazin, flumioxazin], the concentration for half-maximal inhibition (IC50) in assay [1] is 8.43 µM.
With `C#CCN1C(=O)C(F)(F)Oc2cc(F)c(-n3c(=O)n(C)c(=S)n(C)c3=O)cc21`, the IC50 in assay [2] amounted to 1.21e-07 M; in assay [3], 8.22e-08 M; in assay [4] it was 1.38e-07 M.
Consider `COC(=O)C(OC)Oc1ccccc1Oc1cc(-n2c(=O)cc(C(F)(F)F)n(C)c2=O)c(F)cc1Cl` (stereo not shown), for which the IC50 in assay [2] amounted to 2.81e-09 M; in assay [3], 7.54e-08 M; in assay [5], 0.047 µM; in assay [4], 2.27e-08 M.
On the same counts, the results for `COC(Oc1ccccc1Oc1cc(-n2c(=O)cc(C(F)(F)F)n(C)c2=O)c(F)cc1Cl)C(=O)OC1CCCCC1` (stereo not shown) are 6.26e-08 M, 1.31e-06 M, 0.0937 µM and 1.82e-06 M.
With `C#CCN1C(=O)C(F)(F)Oc2cc(F)c(N3C(=O)C4=C(CCCC4)C3=O)cc21`, the results for the IC50 in assay [5] and in assay [1] were 11.4 µM and 0.641 µM, respectively.
On the same counts, the results for `C#CCN1C(=O)C(F)(F)Oc2cc(F)c(-n3c(=O)cc(C(F)(F)F)n(C)c3=O)cc21` are 0.0162 µM and 0.00256 µM.

As usually defined, the IC50 is the concentration at which inhibition is half-maximal.
